Results as given in patent publication US20210061859A1, “NTCP Inhibitor” (The University of Tokyo, priority 2018, published 2021).
In brackets after ≈: the same amount, converted by molar mass. Where a SMILES comes first, the peptide text is derived from it. Bridges are numbered along the chain shown (N, C = ends). [ ]: non-standard residue; d: D form. Sar = CNCC(=O)O

Legend:
[1] = target: human NTCP on cells (HepG2-hNTCP-C4 cells overexpressing the human NTCP gene; primary human hepatocytes) (human) (UniProt Q14973); assay: cell-based or functional assay
[2] = tested on: HepG2-hNTCP-C4 cells; settings: HBV infection assay
Protocol: HBs antigen secreted into a culture supernatant (a) and HBc antigen in the cells (b) were detected by ELISA and an immunofluorescence method, respectively. A cell survival rate was measured by quantifying total cellular DNA (c). […] Data is indicated by mean±SD. Statistical significance was determined by use of Student's t test as to all numbers (*P<0.05, **P<0.01, N.S.: not significant).

[3] = target: T1, human NTCP (Homo sapiens, UniProt Q14973); assay: Surface plasmon resonance binding to immobilized recombinant NTCP; settings: single-cycle kinetics, 1:1 binding model, NTCP immobilized on NTA-Ni2+, read-out: Kd
T1 construct: made in house; host or cells: wheat germ cell-free protein synthesis system
T1 sequence (Q14973 1-349): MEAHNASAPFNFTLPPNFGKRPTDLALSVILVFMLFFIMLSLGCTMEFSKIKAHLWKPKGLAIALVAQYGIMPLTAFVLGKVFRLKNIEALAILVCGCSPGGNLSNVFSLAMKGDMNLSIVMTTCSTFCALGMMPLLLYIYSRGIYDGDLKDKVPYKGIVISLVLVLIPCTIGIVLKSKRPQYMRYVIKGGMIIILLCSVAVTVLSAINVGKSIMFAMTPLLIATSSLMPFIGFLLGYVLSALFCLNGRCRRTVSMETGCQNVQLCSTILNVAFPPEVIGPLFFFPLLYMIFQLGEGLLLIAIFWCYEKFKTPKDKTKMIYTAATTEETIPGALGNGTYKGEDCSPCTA
Protocol: (§1) FIG. 7 is a diagram showing the NTCP association constant of a peptide identified by first RaPID screening. A single-cycle reaction kinetics experiment was conducted using NTCP immobilized on surface (NTA-Ni^2+) involving varying concentrations of a cyclic peptide analyte. In each case, as shown in the drawing, the peptide was tested with 4-fold serial dilutions starting from the highest concentration of 200 or 1000 nM. A dissociation constant (KD) was determined using a 1:1 binding model.
as §1, with “9” for “7”, “focused library” for “first”, “association constant” for “reaction kinetics”
The association constant of each peptide for human NTCP was measured using a Biacore T200 apparatus (GE Healthcare Japan Corp.). The running buffer solution used was HBS-P+ (10 mM HEPES, 150 mM NaCl, and 0.05 vol % surfactant P20, pH 7.4) containing 0.1 vol % DMSO and 1 mM β-dodecyl-maltoside. 100 nM recombinant NTCP was immobilized on a NTA chip treated with Ni^2+ according to the manufacturer's instructions (baseline response: 1000 to 3000 refraction units). Peptides were injected as analytes at a flow rate of 60 μL/min, and association constants were modelled using a 1:1 binding model.

[4] = tested on: HBV genotype D; type: cell-based, hepatitis B virus; settings: primary human hepatocytes, purified HBV as inoculum, HBs antigen in culture supernatant; read-out: 50% inhibitory concentrations (IC50), HBs antigen
Protocol: FIG. 2 is a diagram showing the anti-HBV effect of a peptide from initial screening. FIG. 2(a) is a schematic diagram of a HepG2-hNTCP-C4 infection experiment. HepG2-hNTCP-C4 cells were pretreated with a peptide for 2 hours and subsequently inoculated with HBV for 16 hours in the presence of the peptide. Free HBV and peptide were washed off. Then, the cells were further cultured for 12 days in the absence of the peptide, and HBV infection was evaluated on the basis of measurement of HBs antigen in the culture supernatant. The filled boxes and the broken-line boxes depict periods for which the treatment was performed and periods for which the treatment was not performed, respectively. […] HBV infection was evaluated by monitoring HBs antigen secreted into a culture supernatant on 12 days after inoculation by ELISA. In FIG. 2(c), a cell survival rate was measured by MTT assay.
FIG. 3 is a diagram showing the anti-HBV effect of a peptide by focused library screening. […] HBV infection was evaluated by measurement of HBe antigen (a), and a cell survival rate (b) was evaluated by MTT assay as shown in FIG. 2.
HBV genotype D used in this study (FIGS. 1 to 3) was derived from the culture supernatant of Hep38.7-Tet cells, and prepared by a known method (the method described in Tsukuda, S. et al. Dysregulation of retinoic acid receptor diminishes hepatocyte permissiveness to hepatitis B virus infection through modulation of sodium taurocholate cotransporting polypeptide (NTCP) expression. The Journal of biological chemistry 290, 5673-5684 (2015), and Ogura, N., Watashi, K., Noguchi, T. & Wakita, T. Formation of covalently closed circular DNA in Hep38.7-Tet cells, a tetracycline inducible hepatitis B virus expression cell line. Biochemical and biophysical research communications 452, 315-321 (2014)). Purified HBV (FIG. 1(d)) was prepared by ultrafiltration to remove an excess of components in FBS and medium. HBV genotypes A, B, and C and genotype C having the L180M/S202G/M204V mutations (nucleoside analog-resistant HBV) or G145R substitution (vaccine-escape HBV) (FIG. 4(d)) were prepared from the culture supernatant of HepG2 cells transfected with the corresponding expression plasmid. HBV was inoculated at 12,000 (FIGS. 1(a), 1(b), and 1(d)), 1000 to 2000 (FIG. 2(b)) or 500 (FIGS. 3(a) and 4(d)) genome equivalents (GEq)/cell in the presence of 4% polyethylene glycol 8000 (PEG8000) and incubated at 37° C. for 16 hours by a known method (the method described in Watashi, K. et al. Interleukin-1 and tumor necrosis factor-alpha trigger restriction of hepatitis B virus infection via a cytidine deaminase activation-induced cytidine deaminase (AID). The Journal of biological chemistry 288, 31715-31727 (2013)).
HBe antigen was detected by a chemiluminescence immunoassay (CLIA) (LSI Medience Corp.). HBs antigen was quantified by enzyme-linked immunosorbent assay (ELISA) as described in a known method (the method described in Watashi, K. et al. Interleukin-1 and tumor necrosis factor-alpha trigger restriction of hepatitis B virus infection via a cytidine deaminase activation-induced cytidine deaminase (AID). The Journal of biological chemistry 288, 31715-31727 (2013)).
Subsequently, the present inventors evaluated the effect of the 10 peptides described above on HBV infection in primary human hepatocytes. […] HBV infection was evaluated by measuring HBs antigen in the culture supernatant. […]

[5] = tested on: HBV genotype D; assay: HBV infection assay in HepG2-hNTCP-C4 cells (HBs and HBc antigens); type: cell-based, hepatitis B virus; settings: 100 nM entecavir
Protocol: HBs antigen secreted into a culture supernatant (a) and HBc antigen in the cells (b) were detected by ELISA and an immunofluorescence method, respectively. A cell survival rate was measured by quantifying total cellular DNA (c). The staining images of (b) each show the HBc antigen and the nucleus. […] HBs antigen secreted into a culture supernatant was detected by ELISA. Data is indicated by mean±SD. Statistical significance was determined by use of Student's t test as to all numbers (*P<0.05, **P<0.01, N.S.: not significant). […]
HBs antigen was quantified by enzyme-linked immunosorbent assay (ELISA) as described in a known method (the method described in Watashi, K. et al. Interleukin-1 and tumor necrosis factor-alpha trigger restriction of hepatitis B virus infection via a cytidine deaminase activation-induced cytidine deaminase (AID). The Journal of biological chemistry 288, 31715-31727 (2013)). […]
After HBV inoculation, HBs antigen was measured in a culture supernatant, and HBc antigen was evaluated in the cells to confirm HBV infection, as shown in FIG. 2(a).

Compound | 50% inhibitory concentration (IC50), HBs antigen in culture supernatant, HBV infection assay [1] [nM] | cytotoxicity (cell survival rate, total cellular DNA) [2] | solubility [µM] | Kd [3] [nM] | IC50 [4] [nM] | HBV infection monitored by HBc antigen [5] | HBV infection monitored by HBs antigen [5]
cyclosporin A (peptide) | 3170 |  |  |  |  |  | 
CC[C@H](C)[C@@H]1NC(=O)[C@H](Cc2c[nH]c3ccccc23)NC(=O)[C@H]([C@@H](C)CC)NC(=O)[C@H](C(C)C)NC(=O)[C@H](Cc2ccc(O)cc2)NC(=O)CSC[C@@H](C(=O)N[C@H](C(N)=O)[C@@H](C)O)NC(=O)[C@H](Cc2ccc(O)cc2)NC(=O)[C@H](Cc2ccc(O)cc2)NC(=O)[C@H](Cc2ccccc2)NC(=O)[C@H](Cc2c[nH]cn2)NC(=O)[C@H](CC(N)=O)NC(=O)[C@@H]2CCCN2C(=O)[C@H](Cc2c[nH]c3ccccc23)NC1=O [WL4] ({CH2CO}-YVIWIWPNHFYYCT-NH2; thioether N-13) |  | without marked cytotoxicity | ~30 (≈ 58.3 µg/mL) | 42 | 660 ± 30 |  | 
CC[C@H](C)[C@@H]1NC(=O)[C@H](Cc2ccccc2)NC(=O)[C@@H](Cc2ccc(O)cc2)NC(=O)CSC[C@@H](C(=O)N[C@H](C(N)=O)[C@@H](C)O)NC(=O)[C@H](CO)NC(=O)[C@H](Cc2c[nH]c3ccccc23)NC(=O)[C@H]([C@@H](C)O)NC(=O)[C@H](Cc2c[nH]c3ccccc23)NC(=O)[C@H]([C@@H](C)O)NC(=O)[C@H](Cc2c[nH]c3ccccc23)NC(=O)[C@H]([C@@H](C)O)NC(=O)CN(C)C(=O)[C@H](C(C)C)NC(=O)[C@H]([C@@H](C)CC)NC1=O [WD1] ({CH2CO}-[dY]FIIV[Sar]TWTWTWSCT-NH2; thioether N-14) |  | without marked cytotoxicity | ~30 (≈ 57.5 µg/mL) | 15 | 850 ± 10 |  | 
C=C1[C@H](CO)[C@@H](O)C[C@@H]1n1cnc2c(=O)[nH]c(N)nc21 [entecavir] |  |  |  |  |  | did not exhibit a significant reduction | did not exhibit a significant reduction
